According to US10233180B2, “Substituted nitrogen-containing heterocyclic derivatives, pharmaceutical compositions comprising the same and applications of antitumor thereof” (ZHEJIANG UNIVERSITY, priority 2014, dated 2019):

Legend:
Akt1 = biological target: T1, Akt1 (Homo sapiens, UniProt P31749); experiment: AKT1/PKBα KinEASE FP Fluorescein Green Assay (fluorescence polarization kinase kit); format: biochemical; details: 1 h reaction, read-out: Inhibitory activities against Akt1 (IC50)
T1 construct: purchased 32-021
Method: Second, method for determining the inhibitory activities of substituted nitrogen-containing heterocyclic derivatives in the present invention against Akt1 enzyme:
The inhibitory activities of compounds against AKT1/PKBα are determined by using AKT1/PKBα KinEASE™ FP Fluorescein Green Assay (Green fluorescence detection system of Kinase).
Principle adopted by the fluorescence polarization detection of protein kinase B is a competitive reaction: the phosphorylated tracers labeled with fluorescence will compete with unlabeled phosphorylated products produced by reacting with protein kinase B to combine anti-serine antibodies. […] However, in the reaction mixture containing phosphorylated products, fewer tracers will combine with antibodies (fluorescent tracers are replaced from the antibodies), and signals sent our occur depolarizing. Therefore, the change of polarization is directly related to the activity of protein kinase B in the reaction.
Each of 0.25 μl of compounds with a concentration of 50 μM and the positive control are added to a 384-well plate at room temperature, and each sample is provided with three parallel wells, and then 10 μl of STK Substrate 3 Working Solution, 5 μl of AKT1/PKBα Working Solution, 10 μl of ATP Working Solution are added to each sample respectively, the mixtures are slightly vibrated and shaked for a few minutes. Reaction is carried out just after the adding 10 μl of ATP Working Solution, from this time, reacting for 1 h. After 1 h, 5 μl of STK Stop Mix and 5 μl of STK Antibody Mix are added to each sample respectively to stop the reaction. The samples are maintained for 4 h at room temperature after adding is completed, the polarization values of samples are determined by fluorescence polarization of Microplate Reader (Detection of the signals is valid within 24 h), the inhibitory rate of compounds against the enzyme is calculated by polarization value, and thereby IC50 is calculated.
Experiment is set up four control groups at the same time, which are Buffer Control Wells, Tracer Control Wells, No Enzyme Wells and blank control of dimethyl sulfoxide, respectively. Thus obtained data are used to calculate the inhibitory rate (the preparation methods of above various solution required for determining the activities of compounds against enzyme refer to the specification of the kit of AKT1/PKBα KinEASE™ FP Fluorescein Green Assay Catalog #32-021).

[1] = system: Human ovarian cancer cell strain OVCAR-8; experiment: MTT assay, inhibition of tumor cell growth in vitro, 72 h; format: cell-based; details: Homo sapiens, OVCAR-8, MTT, read-out: Antitumor proliferative activities of tumor cell (IC50, μM) OVCAR-8
Method: (§1) First, inhibitory activity on tumor proliferation in vitro is determined and the structure activity relationship is preliminarily studied, in which different solid tumor cell strains are selected for determining the antitumor activities in vitro of the synthesized compounds.
(§2) Cell strains: Human ovarian cancer cell strain (OVCAR8), colon adenocarcinoma cell strain (HCT-116)
Medium: OVCAR8: RPMI 1640+Fetal Bovine Serum
(§3) Preparing method of medicines: Dissolving the medicine in DMSO to make a 50 mM stock solution, and diluting it according to a certain ratio to obtain 5 different concentrations.
(§4) Two selected tumor cells OVCAR8 and HCT-116 are incubated at 37° C. in a 5% CO2 incubator, which are subcultured when cells grow up to a density of 70˜90% (adherent cells are subcultured after digesting by Duck's EDTA) for later experiments.
(§5) Compounds are dissolved and diluted by dimethyl sulfoxide (DMSO), and tumor cells OVCAR8 and HCT-116 are seeded in a 96-well plate at a density of 4000 cells/200 μl/well, 1 μl of the compounds are added to each well with the final concentration of 50 μM, 10 μM, 2 μM, 0.4 μM and 0.08 μM, which is incubated for 72 h at 37° C. in a 5% CO2 incubator with DMSO (1%) as blank control.
(§6) The calculating formula of cell inhibitory rate is: cell inhibitory rate %=(the OD value of the control group−the OD value of the medication group)/the OD value of the control group×100%, the half maximal inhibitory concentration (IC50) is obtained by Bliss method.

[2] = system: human colon cancer cell strain HCT-116; experiment: as above; format: cell-based; details: Homo sapiens, HCT-116, MTT, read-out: Antitumor proliferative activities of tumor cell (IC50, μM) HCT-116 (converted)
Method: as §1, §2
HCT-116: RPMI 1640+Fetal Bovine Serum
as §3, §4, §5, §6

T1 sequence (P31749 whole entry): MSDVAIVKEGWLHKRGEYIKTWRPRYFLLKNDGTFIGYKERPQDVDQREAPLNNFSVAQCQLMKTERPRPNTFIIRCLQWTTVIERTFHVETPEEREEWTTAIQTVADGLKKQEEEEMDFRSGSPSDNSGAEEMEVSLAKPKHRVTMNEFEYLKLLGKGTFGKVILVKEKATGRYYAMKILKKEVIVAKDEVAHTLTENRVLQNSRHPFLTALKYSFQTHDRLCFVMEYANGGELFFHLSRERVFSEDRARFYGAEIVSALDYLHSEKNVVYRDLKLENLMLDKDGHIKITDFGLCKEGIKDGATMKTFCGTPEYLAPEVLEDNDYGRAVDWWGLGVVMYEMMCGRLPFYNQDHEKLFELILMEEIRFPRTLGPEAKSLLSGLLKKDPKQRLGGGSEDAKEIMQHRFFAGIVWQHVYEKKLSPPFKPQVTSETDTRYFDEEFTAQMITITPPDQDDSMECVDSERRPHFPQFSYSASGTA

Cn1ncc(Cl)c1-c1ccc(C(=O)N[C@@H]2CNCC[C@H]2c2c[nH]c3ccccc23)cc1Cl [Compound 89, N-((3S,4S)-4-(1H-indol-3-yl)piperidin-3-yl)-3-chloro-4-(4-chloro-1-methyl-1H-pyrazol-5-yl)benzamide]
IC50 (Akt1): 11 nM
IC50 [1]: 5.69 µM
IC50 [2]: 1.02 µM

Cn1ncc(C(=O)O)c1-c1ccc(C(=O)N[C@@H]2CNCC[C@H]2c2cccc(F)c2)s1 [Compound 142]
IC50 (Akt1): 2 nM
IC50 [1]: 1.62 µM
IC50 [2]: 3.09 µM

CNC(=O)CC1C[C@@H](c2ccc(F)c(F)c2)[C@H](NC(=O)c2cc(-c3c(Cl)cnn3C)cs2)CN1 (stereo partly drawn) [Compound 133, 4-(4-chloro-1-methyl-1H-pyrazol-5-yl)-N-((3S,4S)-4-(3,4-difluorophenyl)-6-(2-(methylamido)-2-oxyethyl)piperidin-3-yl)thiophene-2-formamide]
IC50 (Akt1): 3 nM
IC50 [1]: 5.79 µM
IC50 [2]: 0.42 µM

Cn1ncc(Cl)c1-c1cc(C(=O)N[C@@H]2CNC(CC(N)=O)C[C@H]2c2ccc(Cl)c(Cl)c2)oc1Cl (stereo partly drawn) [Compound 117, N-((3S,4S)-6-(2-amido-2-oxoethyl)-4-(3,4-dichlorophenyl)piperidin-3-yl)-5-chloro-4-(4-chloro-1-methyl-1H-pyrazol-5-yl)furan-2-formamide]
IC50 (Akt1): 3 nM
IC50 [1]: 0.92 µM
IC50 [2]: 4.28 µM

CNC(=O)CC1C[C@@H](c2ccc(F)c(F)c2)[C@H](NC(=O)c2cc(-c3c(Cl)cnn3C)c(Cl)o2)CN1 (stereo partly drawn) [Compound 105, 5-chloro-4-(4-chloro-1-methyl-1H-pyrazol-5-yl)-N-((3S,4S)-4-(3,4-difluorophenyl)-6-(2-(methylamido)-2-oxoethyl)piperidin-3-yl)furan-2-formamide]
IC50 (Akt1): 51 nM
IC50 [1]: 1.94 µM
IC50 [2]: 0.56 µM

CNC(=O)CC1C[C@@H](c2ccc(F)c(F)c2)[C@H](NC(=O)c2ccc(-c3c(Cl)cnn3C)s2)CN1 (stereo partly drawn) [Compound 152, 5-(4-chloro-1-methyl-1H-pyrazol-5-yl)-N-((3S,4S)-4-(3,4-difluorophenyl)-6-(2-(methylamido)-2-oxoethyl)piperidin-3-yl)thiophene-2-formamide]
IC50 (Akt1): 0.6 nM
IC50 [1]: 1.41 µM
IC50 [2]: 2.82 µM

CCc1sc(C(=O)N[C@H]2CNCC[C@@H]2c2cnc3c(c2)CCC(C)C3)cc1-c1c(C(C)C)cnn1C (stereo partly drawn) [Compound 14, 5-ethyl-4-(4-isopropyl-1-methyl-1H-pyrazol-5-yl)-N-(3,4-trans-4-(7-methyl-5,6,7,8-tetrahydroquinolin-3-yl)piperidin-3-yl)thiophene-2-formamide]
IC50 (Akt1): 5 nM
IC50 [1]: 3.68 µM
IC50 [2]: 3.78 µM

Cn1nccc1-c1coc(C(=O)N[C@H]2CNCC[C@@H]2c2ccc(F)c(F)c2)c1 (racemic) [Compound 21, 4-(1-methyl-1H-pyrazol-5-yl)-N-(3,4-trans-4-(3,4-difluorophenyl)piperidin-3-yl)furan-2-formamide]
IC50 (Akt1): 119 nM
IC50 [1]: 10.7 µM
IC50 [2]: 21 µM

Cn1ncc(Cl)c1-c1sc(C(=O)N[C@@H]2CNCC[C@H]2c2cccc(F)c2)cc1Cl [Compound 139, 4-chloro-5-(4-chloro-1-methyl-1H-pyrazol-5-yl)-N-((3S, 4S)-4-(3-fluorophenyl)piperidin-3-yl)thiophene-2-formamide]
IC50 (Akt1): 0.7 nM
IC50 [1]: 1.44 µM
IC50 [2]: 2.51 µM

Cn1nccc1-c1coc(C(=O)N[C@H]2CNCC[C@@H]2c2ccccc2)n1 (racemic) [Compound 19, 4-(1-methyl-1H-pyrazol-5-yl)-N-(3,4-trans-4-phenylpiperidin-3-yl)oxazole-2-formamide]
IC50 (Akt1): 82 nM
IC50 [1]: 9.83 µM
IC50 [2]: 4.56 µM

CCCC1C[C@@H](c2ccc(Cl)c(Cl)c2)[C@H](NC(=O)c2cc(-c3c(Cl)cnn3C)c(Cl)o2)CN1 (stereo partly drawn) [Compound 130, 5-chloro-4-(4-chloro-1-methyl-1H-pyrazol-5-yl)-N-((3S,4S)-4-(3,4-dichlorophenyl)-6-propylpiperidin-3-yl)furan-2-formamide]
IC50 (Akt1): 0.5 nM
IC50 [1]: 1.06 µM
IC50 [2]: 4.1 µM

CNC(=O)CC1C[C@@H](c2ccc(F)c(F)c2)[C@H](NC(=O)c2ccc(-c3c(Cl)cnn3C)c(Cl)c2)CN1 (stereo partly drawn) [Compound 99, 3-chloro-4-(4-chloro-1-methyl-1H-pyrazol-5-yl)-N-((3S,4S)-4-(3,4-difluorophenyl)-6-(2-(methylamido)-2-oxoethyl)piperidin-3-yl)benzamide]
IC50 (Akt1): 7 nM
IC50 [1]: 3.38 µM
IC50 [2]: 1.21 µM

Cn1ncc(Cl)c1-c1cc(C(=O)N[C@@H]2CNC(CCn3cncn3)C[C@H]2c2ccc(Cl)c(Cl)c2)oc1Cl (stereo partly drawn) [Compound 122, N-((3S,4S)-6-(2-(1H-1,2,4-triazol-1-yl)ethyl)-4-(3,4-dichlorophenyl)piperidin-3-yl)-5-chloro-4-(4-chloro-1-methyl-1H-pyrazol-5-yl)furan-2-formamide]
IC50 (Akt1): 2 nM
IC50 [1]: 0.43 µM
IC50 [2]: 1.02 µM

CCc1cc(C(=O)N[C@@H]2CNCC[C@H]2c2ccc(C(F)(F)F)cc2)cnc1-c1c(Br)cnn1C [Compound 64, 5-ethyl-6-(4-bromo-1-methyl-1H-pyrazol-5-yl)-N-((3S,4S)-4-(4-trifluoromethylphenyl)piperidin-3-yl)pyridinyl-3-formamide]
IC50 (Akt1): 256 nM
IC50 [1]: 1.62 µM
IC50 [2]: 22.6 µM

Cc1cccc([C@H]2CCNC[C@@H]2NC(=O)c2cc(C)c(-c3c(Br)cnn3C)cc2C)c1 (racemic) [Compound 57, 2,5-dimethyl-4-(4-bromo-1-methyl-1H-pyrazol-5-yl)-N-(3,4-trans-4-(3-methylphenyl)piperidin-3-yl)phenyl formamide]
IC50 (Akt1): 82 nM
IC50 [1]: 12.9 µM
IC50 [2]: 2.5 µM

CCC[C@H]1CNC[C@@H](NC(=O)c2ccc(-c3c(Cl)cnn3C)s2)[C@@H]1c1cccc(F)c1 [Compound 151, 5-(4-chloro-1-methyl-1H-pyrazol-5-yl)-N-((3S, 4S, 5R)-4-(3-fluorophenyl)-5-propylpiperidin-3-yl)thiophene-2-formamide]
IC50 (Akt1): 1 nM
IC50 [1]: 1.52 µM
IC50 [2]: 2.5 µM

Cn1ncc(Cl)c1-c1cc(C(=O)N[C@@H]2CNCC[C@H]2c2ccc(C(F)(F)F)cc2)oc1Cl [Compound 44, 5-chloro-4-(4-chloro-1-methyl-1H-pyrazol-5-yl)-N-((3S,4S)-4-(4-trifluoromethylphenyl)piperidin-3-yl)furan-2-formamide]
IC50 (Akt1): 672 nM
IC50 [1]: 1.88 µM
IC50 [2]: 18.3 µM

Cn1ncc(Cl)c1-c1ccc(C(=O)N[C@@H]2CNCC[C@H]2c2ccc(F)c(F)c2)cc1-c1ccoc1 [Compound 87, 4-(4-chloro-1-methyl-1H-pyrazol-5-yl)-N-((3S,4S)-4-(3,4-difluorophenyl)piperidin-3-yl)-3-(furan-3-yl)benzamide]
IC50 (Akt1): 10 nM
IC50 [1]: 2.43 µM
IC50 [2]: 5.63 µM

Cn1nccc1-c1coc(C(=O)N[C@H]2CNCC[C@@H]2c2ccccc2)c1 (racemic) [Compound 1, 4-(1-methyl-1H-pyrazol-5-yl)-N-(3,4-trans-4-phenylpiperidin-3-yl)furan-2-formamide]
IC50 (Akt1): 72 nM
IC50 [1]: 1.34 µM
IC50 [2]: 3.98 µM

Cn1ncc(Cl)c1-c1cc(C(=O)N[C@@H]2CNCC[C@H]2c2ccc(Cl)c(Cl)c2)oc1Cl [Compound 40, 5-chloro-4-(4-chloro-1-methyl-1H-pyrazol-5-yl)-N-((3S,4S)-4-(3,4-dichlorophenyl)piperidin-3-yl)furan-2-formamide]
IC50 (Akt1): 118 nM
IC50 [1]: 1.69 µM
IC50 [2]: 1.56 µM
